Experimental data published in US8946302B2, “Selective sigma-1 receptor ligands” (Wisconsin Alumni Research Foundation, priority 2008, dated 2015).
Where “and” joins values, the source holds several entries; their conditions need not be identical. Identical values can stand only once. Like-named read-outs stand apart in the source and are kept apart here.

What was measured:
[1] = biological target: T1, sigma-1 receptor (Cavia porcellus, UniProt Q60492); test: Affinity for the sigma-1 receptor (Table 3); format: binding; set-up: from tissue
T1 sequence (Q60492 whole entry): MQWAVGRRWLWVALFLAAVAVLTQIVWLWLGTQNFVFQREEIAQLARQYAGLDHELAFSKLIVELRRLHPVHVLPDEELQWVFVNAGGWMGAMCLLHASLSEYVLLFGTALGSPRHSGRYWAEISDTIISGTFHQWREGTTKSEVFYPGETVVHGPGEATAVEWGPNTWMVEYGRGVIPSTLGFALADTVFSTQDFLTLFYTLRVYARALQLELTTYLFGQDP

[2] = biological target: T2, purified sigma-1 receptor (Cavia porcellus, UniProt Q60492); test: Competitive displacement of [3H]-(+)-pentazocine at the pure sigma-1 receptor; format: binding, guinea pig; settings: read-out: Ki Pure σ-1R
T2 construct: made in house; host or cells: E. coli BL21 DE3
T2 sequence (Q60492 whole entry): as above
Method: A guinea pig sigma-1 receptor was purified as previously described (Ramachandran et al., Protein Expr. Purif., 2007. 51(2): 283-92). The pMal P2X plasmid (New England Biolabs) encoding the guinea pig sigma-1 receptor on the C-terminus of the E. coli Maltose Binding Protein was used for purification. The sigma-1 receptor on its C-terminus carried a hexa-histadine epitope tag. Protein was expressed in the E. coli strain BL21 DE3 (Novagen) with 0.6 mM IPTG. The E. coli pellet was sonicated and centrifuged at 100,000 g for 1 hour to separate the particulate and soluble fractions. The particulate fraction was extracted with Triton X-100, centrifuged and the extract was loaded onto an amylose resin (New England Biolabs, E-802). After washing the resin with buffer containing 0.5% Triton X-100, the MBP-sigma-1 receptor fusion protein was eluted with buffer containing 10 mM maltose.
The MBP-sigma-1-receptor fusion protein was cleaved with Factor Xa protease (Novagen) at room temperature for 24-48 hours and the cleavage was monitored with SDS-polyacrylamide gel electrophoresis. The sigma-1 receptor from the Factor Xa cleavage was purified with a HIS-Select HC Nickel affinity gel (Sigma-Aldrich P6611) in a batch format. The resin was washed with buffer containing 0.5% Triton X-100 detergent and the beads were separated by a brief centrifugation at 4000 rpm in a microcentrifuge. After washing to remove MBP, the pure sigma-1 receptor was eluted in buffer containing 250 mM imidazole.
To remove the undigested MBP-sigma-1 receptor fusion protein that is carried over in the Ni^2+ purification, the eluate from the Ni^2+ purification was incubated with Anti-MBP antibody conjugated to agarose (Vector Laboratories, Burlingame, Calif.) at 4° C. for 18-24 hours. The beads were separated by centrifugation and the supernatant contained the pure sigma-1 receptor.
Competition ligand binding to the pure sigma-1 receptor was performed as previously described. […] After incubation at 30° C. for 60 minutes, the reaction was terminated by rapid filtration through glass fiber filters (Whatman GF/B), using a Brandel cell harvester (Brandel, Gaithersburg, Md.). The glass fiber filters were pre-soaked in 0.5% polyethyleneimine (PEI) for at least 1 hour at room temperature (˜23° C.). Filters were washed 4 times with 4 mL of ice-cold 50 mM Tris-C1, pH 8.0. Radioactivity was quantified by liquid scintillation counting using a Packard model 1600 CA scintillation counter.

[3] = biological target: T3, σ-2 Sites (Rattus norvegicus, UniProt Q5U3Y7); test: σ-2 sites radioligand binding, rat liver membranes (Table 2)
T3 construct: from tissue
T3 sequence (Q5U3Y7 1-176): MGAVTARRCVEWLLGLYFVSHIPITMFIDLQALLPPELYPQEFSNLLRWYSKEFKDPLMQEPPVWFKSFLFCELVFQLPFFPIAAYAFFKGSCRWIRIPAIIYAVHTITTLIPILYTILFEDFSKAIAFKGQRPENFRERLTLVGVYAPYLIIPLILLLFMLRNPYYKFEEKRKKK
Method: (§2) Assays for sigma-1 were performed using 10 nM (+)-[^3H]pentazocine in guinea pig liver homogenates (25 μg/well) incubated at 30° C. for 1 hour with several concentrations of competing ligands. After incubation, membranes were harvested on a 0.5% PEI-treated Whatman GF/B filters using a Brandel Cell Harvester. (+)-[^3H]pentazocine binding was determined by liquid scintillation counting. […] Serial concentrations of the compounds evaluated were added to the reactions for 45 minutes at 30° C. and the samples vacuum filtered through 0.5% polyethyleneimine (PEI) treated Whatman GF/B as described above to measure displacement of the radioligands from the sigma receptor subtypes.

[4] = biological target: T4, σ-1 Sites (Cavia porcellus, UniProt Q60492); test: σ-1 sites radioligand binding, guinea pig liver membranes (Table 2); settings: for Ki: guinea pig liver membranes; for σ-1 selectivity σ-2 Ki/σ-1 Ki: σ-2 rat liver / σ-1 guinea pig liver membranes
T4 construct: from tissue
T4 sequence (Q60492 whole entry): as the sequence (Q60492 whole entry) above
Method: as §2

[5] = biological target: T1, sigma-1 receptor; test: Sigma-1 competitive binding, (+)-[3H]pentazocine, guinea pig liver membranes (Example 6); set-up: from tissue; host or cells: guinea pig liver membranes;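 note: compounds tested over serial concentrations, 45 min incubation at 30 °C with membrane preparations, read-out is displacement of bound radioligand from the receptor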
Method: (§3) Minced frozen rat livers or guinea pig livers (65 g) were thawed in 100 mL homogenization buffer (10 mM phosphate buffer pH 7.4 containing 0.32M sucrose, 1 M MgSO4, 0.5 M EGTA, 1 mM phenylmethylsulphonyl fluoride (PMSF), 10 μg/mlleupeptin, 1 μg/ml pepstatin A, 10 μg/ml p-toluenesulfonyl-L-arginine methyl ester (TAME) and then homogenized on ice with a Brinkman polytron homogenizer (setting 6, 4 bursts of 10 second each) followed by a glass homogenizer (Teflon pestle by 6 slow passes at 3,000 rpm). The homogenized tissues were then centrifuged at 17,000 g for 10 minutes. The supernatants were re-centrifuged at 100,000 g for 1 hour. The microsomal pellets were resuspended in homogenization buffer, snap frozen with dry ice-ethanol, and stored at −80° C. at a final protein concentration of 20 mg/mL.
as §2

[6] = biological target: T5, sigma-2 receptor (Rattus norvegicus, UniProt Q5U3Y7); test: Sigma-2 competitive binding, [3H]-DTG with (+)-pentazocine, rat liver membranes (Example 6); set-up: from tissue; host or cells: rat liver membranes
T5 sequence (Q5U3Y7 1-176): T3 sequence (Q5U3Y7 1-176)
Method: as §3, §2

[7] = test system: tumor cell lines; test: Cytotoxicity assays, various tumor cell lines (statements in words); format: cell-based, human
Method: Because sigma-1 receptors are overexpressed in numerous tumor cell lines, which include breast cancer, lung carcinoma, renal carcinoma, colon carcinoma, sarcoma, brain tumors, melanoma, glioblastoma, neuroblastoma, and prostate cancer, the ability of the compounds to inhibit the growth of various tumor cell lines were tested.
(§1) Multi-plex cytotoxicity assays were performed by the Keck-UWCCC Small Molecule Screening Facility (Madison, Wis.). Specific methodology can be found online at http://hts.wisc.edu/Resources.htm#mpa.

[8] = test system: HI299; test: Cytotoxicity assay HI299; format: cell-based; settings: Homo sapiens, HU Lung, read-out: IC50 (SE) growth inhibition
Method: as §1

[9] = test system: SKOV-3; test: Cytotoxicity assay SKOV-3; format: cell-based; settings: Homo sapiens, SK-OV-3, HU Ovarian, read-out: IC50 (SE) growth inhibition
Method: as §1

[10] = test system: NCI-H460; test: Cytotoxicity assay NCI-H460; format: cell-based; settings: Homo sapiens, HU lung, read-out: IC50 (SE) growth inhibition
Method: as §1

[11] = test system: SF268; test: Cytotoxicity assay SF268; format: cell-based; settings: Homo sapiens, SF-268, HU CNS, read-out: IC50 (SE) growth inhibition
Method: as §1

[12] = test system: Du145; test: Cytotoxicity assay Du145; format: cell-based; settings: Homo sapiens, DU-145, HU Prostate, read-out: IC50 (SE) growth inhibition
Method: as §1

[13] = test system: HT-29; test: Cytotoxicity assay HT-29; format: cell-based; settings: Homo sapiens, HU Colorectal, read-out: IC50 (SE) growth inhibition
Method: as §1

[14] = test system: MCF7; test: Cytotoxicity assay MCF7; format: cell-based; settings: Homo sapiens, HU Breast, read-out: IC50 (SE) growth inhibition
Method: as §1

[15] = test system: MB-MDA-231; test: Cytotoxicity assay MB-MDA-231; format: cell-based; settings: Homo sapiens, HU Breast, read-out: IC50 (SE) growth inhibition
Method: as §1

[16] = test system: HCT-45; test: Cytotoxicity assay HCT-45; format: cell-based; settings: Homo sapiens, HU Colorectal, read-out: IC50 (SE) growth inhibition
Method: as §1

[17] = test system: A549; test: Cytotoxicity assay A549; format: cell-based; settings: Homo sapiens, HU lung, read-out: IC50 (SE) growth inhibition
Method: as §1

[18] = test system: MCP10A; test: Cytotoxicity assay MCP10A; format: cell-based; settings: Homo sapiens, HU Breast, read-out: IC50 (SE) growth inhibition
Method: as §1

[19] = guinea pig liver membranes, n = 3, read-out: Sigma 1 KD values
[20] = rat liver membranes, n = 3, read-out: Sigma2 KD values

**Q.** How did the Kd ([1]; read-out: Sigma-1 KD) turn out when `CCCCN(CCCC)CCCc1ccc(F)cc1` [HD1] was run?
**A.** The Kd was 0.0177 µM.

**Q.** How did the Ki ([2]; [3H]-(+)-pentazocine 10 nM) turn out when `CCCCCCCCCCCCCCCCCCN` [Stearylamine] was run?
**A.** The Ki was 8.5 µM and 8 µM.

**Q.** Which Ki ([2]; [3H]-(+)-pentazocine 10 nM) does the source give for `CCCCCCCCCCCCCCCCN` [Hexadecylamine] here?
**A.** Its Ki is 2.7 µM and 3 µM.

**Q.** How did the Ki ([2]; [3H]-(+)-pentazocine 10 nM) turn out when `CCCCCN` [Amylamine] was run?
**A.** The Ki was 167 ± 35.2 µM.

**Q.** Which results are given for `CCCCCCCCCCCCCCCCCCNCCCc1ccccc1` [Compound 1g, N-(3-Phenylpropyl)octadecan-1-amine]?
**A.** Ki [3]: 19.9 µM; Ki [4]: 34.4 µM; σ-1 selectivity σ-2 Ki/σ-1 Ki [4]: 0.7; Ki ([2]; [3H]-(+)-pentazocine): 0.0422 µM

**Q.** For `CCCNCCc1ccc(F)cc1` [HD7], which Kd [1] is on record?
**A.** The Kd was 0.091 µM.

**Q.** For `CCCCCCCCCCCCN` [Dodecylamine], which Ki ([2]; [3H]-(+)-pentazocine 10 nM) is on record?
**A.** Its Ki is 0.18 µM and 0.2 µM.

**Q.** With `CCCN(CCCc1ccc(F)cc1)Cc1ccc(N)c(I)c1` [Compound 14, N-Propyl-N-(4-amino-3-iodo-benzyl)-3-(4-fluorophenyl)propylamine] as the compound, how does the “Ratio (σ2/σ1)” value [5] read?
**A.** The value was 0.3389.

**Q.** What about the Kd [5, 19] of the same compound?
**A.** Its Kd is 393 µM.

**Q.** And the Kd [6, 20]?
**A.** Its Kd is 133 µM.

**Q.** What does the source list for `CCCCNCCCc1ccc([N+](=O)[O-])cc1` [Compound 1b, N-(3-(4-Nitrophenyl)propyl)butan-1-amine]?
**A.** Ki [3]: 0.022 µM; Ki [4]: 0.003 µM; σ-1 selectivity σ-2 Ki/σ-1 Ki [4]: 7; Ki ([2]; [3H]-(+)-pentazocine): 0.02 µM

**Q.** What does the source list for `CCCCN(CCCC)CCCC` [Compound 6]?
**A.** Ratio (σ2/σ1) [5]: 6.41; Kd [5, 19]: 7 µM; Kd [6, 20]: 44.8 µM

**Q.** For `CCCNCCc1ccc(F)cc1` [Compound 9], which Kd [5] is on record?
**A.** The Kd was 0.091 µM.

**Q.** What about the “Ratio (σ2/σ1)” value [5] of the same compound?
**A.** Its value is 2.53.

**Q.** What about the Kd [6] of the same compound?
**A.** The Kd was 0.23 µM.

**Q.** How did the Kd ([1]; read-out: Sigma-1 KD) turn out when `CCCCCCCCCCCCNCCCc1ccc([N+](=O)[O-])cc1` [Compound 1f, N-(3-(4-Nitrophenyl)propyl)dodecan-1-amine] was run?
**A.** The Kd was 0.00039 µM.

**Q.** What about the Ki [3] of the same compound?
**A.** The Ki was 2.38 µM.

**Q.** And the Ki [4]?
**A.** The Ki was 5.17 µM.

**Q.** What about the Ki ([2]; [3H]-(+)-pentazocine) of the same compound?
**A.** Its Ki is 0.0318 µM.

**Q.** What about the “cytotoxicity / tumor cell growth inhibition” value [7] of the same compound?
**A.** Its value is “remarkable activity for inhibiting tumor growth”.

**Q.** How did the “Ratio (σ2/σ1)” value [5] turn out when `CCCCNCc1ccc([N+](=O)[O-])cc1` [Compound 16, N-Butyl-N-4-nitrobenzylamine] was run?
**A.** Its value is 1.4622.

**Q.** And the Kd [5, 19]?
**A.** Its Kd is 1.15 µM.

**Q.** And the Kd [6, 20]?
**A.** Its Kd is 1.68 µM.

**Q.** Which Kd [5, 19] does the source give for `CN(C)CCc1c[nH]c2ccccc12` [Compound 1] here?
**A.** The Kd was over 50000 µM.

**Q.** With `CCCN(CCCc1ccc(F)cc1)Cc1ccc(N)cc1` [Compound 17, N-Propyl-N-(4-amino-benzyl)-3-(4-fluorophenyl)propylamine] as the compound, how does the “Ratio (σ2/σ1)” value [5] read?
**A.** The value was 13.11 ^.

**Q.** And the Kd [5, 19]?
**A.** The Kd was 0.164 µM.

**Q.** What about the IC50 [8] of the same compound?
**A.** Its IC50 is over 100 µM.

**Q.** What about the Kd [6, 20] of the same compound?
**A.** The Kd was 2.15 µM.

**Q.** And the IC50 [9]?
**A.** Its IC50 is over 100 µM.

**Q.** What about the IC50 [10] of the same compound?
**A.** Its IC50 is over 100 µM.

**Q.** What about the IC50 [11] of the same compound?
**A.** The IC50 was over 100 µM.

**Q.** And the IC50 [12]?
**A.** The IC50 was over 100 µM.

**Q.** What about the IC50 [13] of the same compound?
**A.** The IC50 was over 100 µM.

**Q.** And the IC50 [14]?
**A.** Its IC50 is over 100 µM.

**Q.** And the IC50 [15]?
**A.** Its IC50 is over 100 µM.

**Q.** And the IC50 [16]?
**A.** The IC50 was over 100 µM.

**Q.** What about the IC50 [17] of the same compound?
**A.** Its IC50 is over 100 µM.

**Q.** And the “cytotoxicity / tumor cell growth inhibition” value [7]?
**A.** Its value is “lacked any cytotoxic properties”.

**Q.** What about the IC50 [18] of the same compound?
**A.** Its IC50 is over 100 µM.

**Q.** Which Kd [6, 20] does the source give for `CCCN(Cc1ccc([N+](=O)[O-])cc1)C(=O)CCc1ccc(F)cc1` [Compound 13, N-Propyl-N-(4-nitro-benzyl)-3-(4-fluorophenyl)propionamide] here?
**A.** The Kd was 236 µM.
